# In patent US8653087B2, “Pyrido [5, 4-D] pyrimidines as cell proliferation inhibitors” (Boehringer Ingelheim International GmbH, priority 2008, dated 2014):
# Biological target: B-Raf (V600E)-kinase (Homo sapiens (Human), UniProt P15056, V600E)
# Test: Kinase test B-RAF (V600E)
# Assay type: biochemical
# Settings: B-RAF (V600E) kinase test, 250 μM ATP
# Method: Kinase Test B-RAF (V600E)
# In a dilution series 10 μL of test substance solution are placed in a multiwell plate. The dilution series is selected so that generally a range of concentrations of 2 μM to 0.119 nM or 0.017 nM is covered. If necessary the initial concentration of 2 μM is changed to 50 μM, 10 μM or 0.4 μM or 0.2857 μM and further dilution is carried out accordingly. The final concentration of DMSO is 5%. 10 μL of the B-Raf (V600E)-kinase solution are pipetted in (containing 0.5 ng B-Raf (V600E)-kinase in 20 mM Tris-HCl pH 7.5, 0.1 mM EDTA, 0.1 mM EGTA, 0.286 mM sodium orthovanadate, 10% glycerol, 1 mg/mL bovine serum albumin, 1 mM dithiothreitol) and the mixture is incubated for 24 h at RT under with shaking. The kinase reaction is started by the addition of 20 μL ATP solution [final concentration: 250 μM ATP, 30 mM Tris-HCl pH 7.5, 0.02% Brij, 0.2 mM sodium orthovanadate, 10 mM magnesium acetate, 0.1 mM EGTA, phosphatase cocktail (Sigma, # P2850, dilution recommended by the manufacturer), 0.1 mM EGTA] and 10 μL MEK1 solution [containing 50 ng biotinylated MEK1 (prepared from purified MEK1 according to standard procedure, e.g. with EZ-Link Sulpho-NHS-LC-Biotin reagent, Pierce, #21335) and carried out for 60 min at RT with constant shaking. The reaction is stopped by the addition of 12 μL of a 100 mM EDTA solution and incubation is continued for a further 5 min. 55 μL of the reaction solution are transferred into a streptavidin-coated plate (e.g. Streptawell HighBond, Roche, #11989685001) and shaken gently for 1 h at RT, in order to bind biotinylated MEK1 to the plate. After elimination of the liquid the plate is washed five times with 200 μL of 1×PBS and 100 μL solution of primary antibody plus europium-labelled secondary antibody [Anti Phospho-MEK (Ser217/221), Cell Signaling, #9121 and Eu-N1 labeled goat-anti-rabbit antibody, Perkin Elmer, # AD0105], the primary antibody is diluted 1:2000 and the secondary antibody is diluted to 0.4-0.5 μg/mL in Delfia Assay Buffer (Perkin Elmer, #1244-111). After 1 h shaking at RT the solution is poured away and washed five times with 200 μL Delfia Wash Buffer (Perkin Elmer, #4010-0010/#1244-114). After the addition of 200 μL Enhancement Solution (Perkin Elmer, #4001-0010/#1244-105) the mixture is shaken for 10 min at RT and then measured in a Wallac Victor using the program “Delfia Time Resolved Fluorescence (Europium)”. IC50 values are obtained from these dosage-activity curves using a software program (GraphPadPrizm).
# Sequence of B-Raf (V600E)-kinase (P15056 whole entry V600E): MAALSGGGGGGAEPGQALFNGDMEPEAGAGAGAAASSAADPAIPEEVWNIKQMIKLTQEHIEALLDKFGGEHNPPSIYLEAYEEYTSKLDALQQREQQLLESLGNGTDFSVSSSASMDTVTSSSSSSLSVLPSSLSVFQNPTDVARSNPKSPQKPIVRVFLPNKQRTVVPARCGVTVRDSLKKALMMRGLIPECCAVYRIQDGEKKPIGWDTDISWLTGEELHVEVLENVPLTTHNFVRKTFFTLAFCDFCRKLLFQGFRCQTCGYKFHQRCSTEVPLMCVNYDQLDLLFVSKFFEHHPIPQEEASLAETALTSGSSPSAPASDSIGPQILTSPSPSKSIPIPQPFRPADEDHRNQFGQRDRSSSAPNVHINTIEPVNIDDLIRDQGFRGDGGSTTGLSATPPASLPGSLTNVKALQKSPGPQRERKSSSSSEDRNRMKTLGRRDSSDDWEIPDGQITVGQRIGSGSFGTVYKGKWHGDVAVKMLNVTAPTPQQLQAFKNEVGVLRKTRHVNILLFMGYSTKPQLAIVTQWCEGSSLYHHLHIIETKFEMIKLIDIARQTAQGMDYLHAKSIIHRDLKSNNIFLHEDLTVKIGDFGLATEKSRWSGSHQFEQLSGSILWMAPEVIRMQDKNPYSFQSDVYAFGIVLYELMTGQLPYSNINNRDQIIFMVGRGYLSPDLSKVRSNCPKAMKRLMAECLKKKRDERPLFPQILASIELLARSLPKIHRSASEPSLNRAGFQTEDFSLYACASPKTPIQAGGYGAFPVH
row,Structure (SMILES),IC50 [nM]
1,Cc1ccc(C(=O)Nc2ccc(C#N)c(C(F)(F)F)c2)cc1Nc1ncnc2c(N)nc(N3CCN(C)CC3)nc12 [I-71],7
2,Cc1ccc(C(=O)Nc2cc(C(C)(C)C)nn2C)cc1Nc1ncnc2c(N)nc(N3CCN(C)CC3)nc12 [I-72],12
3,Cc1ccc(C(=O)Nc2cc(C(F)(F)F)ccn2)cc1Nc1ncnc2c(N)nc(N3CCN(C)CC3)nc12 [I-73],2
4,Cc1cn(-c2cc(NC(=O)c3ccc(C)c(Nc4ncnc5c(N)nc(N6CCN(C)CC6)nc45)c3)cc(C(F)(F)F)c2)cn1 [I-75],54
5,CCN1CCN(c2cc(NC(=O)c3ccc(C)c(Nc4ncnc5c(N)nc(N(C)C)nc45)c3)cc(C(F)(F)F)c2)CC1 [I-79],19
6,Cc1ccc(C(=O)Nc2cccc(C(C)(C)C)c2)cc1Nc1ncnc2c(N)nc(N3CCN(C)CC3)nc12 [I-80],2
7,CN1CCN(c2nc(N)c3ncnc(Nc4ccc(F)c(C(=O)Nc5cc(C(C)(C)C)n[nH]5)c4)c3n2)CC1 [I-82],676
8,CC(C)CN1CCN(c2nc(N)c3ncnc(Nc4ccc(F)c(C(=O)Nc5cc(C(C)(C)C)n[nH]5)c4)c3n2)CC1 [I-83],2200
9,Cc1ccc(C(=O)Nc2cc(C(C)(C)C)nn2C)cc1Nc1ncnc2c(N)nc(N3CCN(CC(C)C)CC3)nc12 [I-84],11
10,Cc1ccc(C(=O)Nc2cc(N(C)CCN(C)C)cc(C(F)(F)F)c2)cc1Nc1ncnc2c(N)nc(N3CC[C@H](F)C3)nc12 [I-86],4
11,Cc1ccc(NC(=O)c2cccc(C(F)(F)F)c2)cc1Nc1ncnc2c(N)nc(N3CCN(C)CC3)nc12 [II-1],26
12,Cc1ccc(NC(=O)c2cccc(C(F)(F)F)c2)cc1Nc1ncnc2c(N)nc(NN3CCN(C)CC3)nc12 [II-3],50
13,Cc1ccc(NC(=O)c2cccc(C(F)(F)F)c2)cc1Nc1ncnc2c(N)nc(NCc3ccccn3)nc12 [II-6],96
14,Cc1ccc(NC(=O)c2cccc(C(F)(F)F)c2)cc1Nc1ncnc2c(N)nc(N3CCCNCC3)nc12 [II-11],20
15,Cc1ccc(NC(=O)c2cccc(C(F)(F)F)c2)cc1Nc1ncnc2c(N)nc(N3CCCN(c4ccncc4)CC3)nc12 [II-12],7
16,Cc1ccc(NC(=O)c2cccc(C(F)(F)F)c2)cc1Nc1ncnc2c(N)nc(N3CCCN(c4ncccn4)CC3)nc12 [II-16],45
17,Cc1ccc(NC(=O)c2cccc(C(F)(F)F)c2)cc1Nc1ncnc2c(N)nc(N3CCN(C(C)C)CC3)nc12 [II-17],13
18,COc1ccc(NC(=O)c2ccc(C)c(Nc3ncnc4cnc(N5CCN(C)CC5)nc34)c2)cc1C(F)(F)F [III-1],2
19,COc1ccc(NC(=O)c2ccc(C)c(Nc3ncnc4cnc(N5CCOCC5)nc34)c2)cc1C(F)(F)F [III-2],< 1
20,COCCN(C)c1ncc2ncnc(Nc3cc(C(=O)Nc4ccc(OC)c(C(F)(F)F)c4)ccc3Cl)c2n1 [III-4],2
21,COc1ccc(NC(=O)c2ccc(Cl)c(Nc3ncnc4cnc(N(C)CCN(C)C)nc34)c2)cc1C(F)(F)F [III-5],2
22,COc1ccc(NC(=O)c2ccc(Cl)c(Nc3ncnc4cnc(N(C)CCN5CCCC5)nc34)c2)cc1C(F)(F)F [III-8],3
23,COc1ccc(NC(=O)c2ccc(Cl)c(Nc3ncnc4cnc(N5CCN(C)CC5)nc34)c2)cc1C(F)(F)F [III-9],7
24,COc1ccc(NC(=O)c2ccc(Cl)c(Nc3ncnc4cnc(N5CCCCC5)nc34)c2)cc1C(F)(F)F [III-10],6
25,COc1ccc(NC(=O)c2ccc(Cl)c(Nc3ncnc4cnc(NCCCN5CCOCC5)nc34)c2)cc1C(F)(F)F [III-11],4
26,COc1ccc(NC(=O)c2ccc(Cl)c(Nc3ncnc4cnc(N5CCOCC5)nc34)c2)cc1C(F)(F)F [III-12],2
27,COc1ccc(NC(=O)c2ccc(Cl)c(Nc3ncnc4cnc(N5CCCC5)nc34)c2)cc1C(F)(F)F [III-13],9
28,COc1ccc(NC(=O)c2ccc(Cl)c(Nc3ncnc4cnc(NCCN5CCOCC5)nc34)c2)cc1C(F)(F)F [III-15],5
29,COc1ccc(NC(=O)c2ccc(Cl)c(Nc3ncnc4cnc(N(C)C)nc34)c2)cc1C(F)(F)F [III-16],2
30,COCCN(C)c1ncc2ncnc(Nc3cc(C(=O)Nc4ccc(OC)c(C(F)(F)F)c4)ccc3OC)c2n1 [III-17],3

# Continued, values first:
row,IC50 [nM],Structure (SMILES)
1,3,Cc1ccc(C(=O)Nc2cccc(C(F)(F)F)c2)cc1Nc1ncnc2c(N)nc(N3CCCN(c4ccccn4)CC3)nc12 [I-67]
2,< 1,Cc1ccc(C(=O)Nc2cccc(C(F)(F)F)c2)cc1Nc1ncnc2c(N)nc(N3CCCN(C)CC3)nc12 [I-68]
3,2,Cc1ccc(C(=O)Nc2cc(C(C)(C)C)n[nH]2)cc1Nc1ncnc2c(N)nc(N3C[C@@H]4C[C@H]3CN4)nc12 [I-69]
4,3,Cc1ccc(C(=O)Nc2cc(N(C)CCN(C)C)cc(C(F)(F)F)c2)cc1Nc1ncnc2c(N)nc(N3CCCOCC3)nc12 [I-70]
5,3,Cc1ccc(C(=O)Nc2ccc(Cl)c(C(F)(F)F)c2)cc1Nc1ncnc2c(N)nc(N3CCN(C)CC3)nc12 [I-74]
6,1,Cc1ccc(C(=O)Nc2cc(N(C)CCN(C)C)cc(C(F)(F)F)c2)cc1Nc1ncnc2c(N)nc(N3CCOCC3)nc12 [I-76]
7,2,CCN1CCN(c2cc(NC(=O)c3ccc(C)c(Nc4ncnc5c(N)nc(N6CCOCC6)nc45)c3)cc(C(F)(F)F)c2)CC1 [I-77]
8,8,Cc1ccc(C(=O)Nc2cc(N(C)CCN(C)C)cc(C(F)(F)F)c2)cc1Nc1ncnc2c(N)nc(N(C)C)nc12 [I-78]
9,3,CCN1CCN(c2cc(NC(=O)c3ccc(C)c(Nc4ncnc5c(N)nc(N6CCCOCC6)nc45)c3)cc(C(F)(F)F)c2)CC1 [I-81]
10,7,Cc1ccc(C(=O)Nc2cc(C(C)(C)C)nn2C)cc1Nc1ncnc2c(N)nc(N3CCN4CCCC4C3)nc12 (stereo not shown) [I-85]
11,9,CCN1CCN(c2cc(NC(=O)c3ccc(C)c(Nc4ncnc5c(N)nc(N6CCCC6)nc45)c3)cc(C(F)(F)F)c2)CC1 [I-87]
12,10,CCN1CCN(c2cc(NC(=O)c3ccc(C)c(Nc4ncnc5c(N)nc(N6CC[C@H](F)C6)nc45)c3)cc(C(F)(F)F)c2)CC1 [I-88]
13,41,Cc1ccc(NC(=O)c2cccc(C(F)(F)F)c2)cc1Nc1ncnc2c(N)nc(N3CCCN(C)CC3)nc12 [II-2]
14,81,Cc1ccc(NC(=O)c2cccc(C(F)(F)F)c2)cc1Nc1ncnc2c(N)nc(NCc3ccncc3)nc12 [II-4]
15,50,Cc1ccc(NC(=O)c2cccc(C(F)(F)F)c2)cc1Nc1ncnc2c(N)nc(NCc3cccnc3)nc12 [II-5]
16,15,Cc1ccc(NC(=O)c2cccc(C(F)(F)F)c2)cc1Nc1ncnc2c(N)nc(N(C)C)nc12 [II-7]
17,2,Cc1ccc(NC(=O)c2cccc(C(F)(F)F)c2)cc1Nc1ncnc2c(N)nc(N3CCN(C4CCN(C)CC4)CC3)nc12 [II-8]
18,24,Cc1ccc(NC(=O)c2cccc(C(F)(F)F)c2)cc1Nc1ncnc2c(N)nc(N3CCN(C4CCCC4)CC3)nc12 [II-9]
19,25,Cc1ccc(NC(=O)c2cccc(C(F)(F)F)c2)cc1Nc1ncnc2c(N)nc(N3CCCN(C4CC4)CC3)nc12 [II-10]
20,7,Cc1ccc(NC(=O)c2cccc(C(F)(F)F)c2)cc1Nc1ncnc2c(N)nc(N3C[C@H](C)NC[C@H]3C)nc12 [II-13]
21,4,Cc1ccc(NC(=O)c2cccc(C(F)(F)F)c2)cc1Nc1ncnc2c(N)nc(N3CCN(CC4CCN(C)CC4)CC3)nc12 [II-14]
22,40,Cc1ccc(NC(=O)c2cccc(C(F)(F)F)c2)cc1Nc1ncnc2c(N)nc(N3CC(C)NC(C)C3)nc12 (stereo not shown) [II-15]
23,9,Cc1ccc(NC(=O)c2cccc(C(F)(F)F)c2)cc1Nc1ncnc2c(N)nc(N3CC4CC3CN4C)nc12 (stereo not shown) [II-18]
24,9,Cc1ccc(NC(=O)c2cccc(C(F)(F)F)c2)cc1Nc1ncnc2c(N)nc(N3CCNCC3)nc12 [II-19]
25,118,Cc1ccc(C(=O)NCc2cccc(C(C)(C)C)c2)cc1Nc1ncnc2cnc(N(C)CCN(C)C)nc12 [III-3]
26,7,COc1ccc(NC(=O)c2ccc(Cl)c(Nc3ncnc4cnc(N5CCCCCC5)nc34)c2)cc1C(F)(F)F [III-6]
27,1,COc1ccc(NC(=O)c2ccc(Cl)c(Nc3ncnc4cnc(N5CCCN(C)CC5)nc34)c2)cc1C(F)(F)F [III-7]
28,3,COc1ccc(NC(=O)c2ccc(Cl)c(Nc3ncnc4cnc(NCCN(C)C)nc34)c2)cc1C(F)(F)F [III-14]
